Tested on: not given
Assay: not given
Conditions: not given

| melting point [°C] | Compound |
| --- | --- |
| 156 to 158 | Cc1cc(C)cc(Nc2ncc(Cc3ccncc3)c3ccccc23)c1 [Example 1, 1-(3,5-Dimethylanilino)-4-[(pyridin-4-yl)-methyl]-isoquinoline] |
| 141 to 142 | Clc1cccc(CNc2ncc(Cc3ccncc3)c3ccccc23)c1 [Example 132, 1-(3-Chlorobenzylamino)-4-[(pyridin-4-yl)-methyl]-isoquinoline] |

Target: T1, Flt-1 VEGF receptor tyrosine kinase (Homo sapiens, UniProt P17948)
T1 construct: 10 ng of the kinase domain of Flt-1
T1 sequence (P17948 827-1158 limits assumed): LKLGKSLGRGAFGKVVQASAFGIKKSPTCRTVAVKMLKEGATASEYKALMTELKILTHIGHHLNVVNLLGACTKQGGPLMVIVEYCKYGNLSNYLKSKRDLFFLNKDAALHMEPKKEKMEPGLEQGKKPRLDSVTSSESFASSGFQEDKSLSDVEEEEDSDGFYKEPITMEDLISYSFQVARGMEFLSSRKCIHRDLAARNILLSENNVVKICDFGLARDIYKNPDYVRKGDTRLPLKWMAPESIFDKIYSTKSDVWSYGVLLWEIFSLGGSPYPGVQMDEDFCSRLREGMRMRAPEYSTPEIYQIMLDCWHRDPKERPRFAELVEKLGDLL
Assay: Test for activity against Flt-1 VEGF receptor tyrosine kinase activity
Type: biochemical
Conditions: kinase domain of Flt-1, poly(Glu,Tyr) 4:1, 8 μM [33P]-ATP, 15 minutes at room temperature
Description: Test for activity against VEGF receptor tyrosine kinase activity: The test is carried out using Flt-1 VEGF receptor tyrosine kinase. In detail, the procedure is as follows: 30 μl of kinase solution (10 ng of the kinase domain of Flt-1, Shibuya et al., Oncogene 5, 519-524 (1990)) in 20 mM Tris-HCl pH 7.6, 3 mM manganese dichloride (MnCl2), 3 mM magnesium chloride (MgCl2) and 3 μg/ml of poly(Glu,Tyr) 4:1 (Sigma, Buchs, Switzerland), 8 μM [^33P]-ATP (0.2 μCi/batch), 1% dimethyl sulfoxide and from 0 to 50 μM of the test compound are incubated together for 15 minutes at room temperature. The reaction is then terminated by addition of 10 μl of 0.25M ethylenediamine tetraacetate (EDTA) pH 7. An aliquot of 20 μl is connected to a vacuum using a multichannel dispenser (LAB SYSTEMS, USA) on a PVDF (=polyvinyl difluoride) Immobilon P membrane (Millipore, USA), which is incorporated in a Millipore Microtiter filter manifold. When the liquid has been removed completely, the membrane is incubated 4 times in succession, in each case for 10 minutes, with shaking, in a washing bath containing 0.5% phosphoric acid (H3PO4), and is then mounted in a Hewlett Packard TopCount Manifold and, after addition of 10 μl of Microscint® (β-scintillation counter fluid; Packard, USA), the radioactivity is, measured. IC50 values are determined by linear regression analysis of the percentage values for the inhibition of each compound at three concentrations (generally 0.01, 0.1 and 1 μM). The inhibition values (IC50 with half-maximum inhibition as compared with a control without inhibitor of formula I) found are especially in the range of from 10 nmol/liter to 100 μmol/liter, more especially from 20 to 2000 nmol/liter.
The test is carried out using Fit-1 VEGF receptor tyrosine kinase, as described above. The IC50 values obtained are shown below, insofar as they were calculated accurately: […]

| IC50 [nM] | Compound |
| --- | --- |
| 802 | Cc1cc(C)cc(Nc2ncc(Cc3ccncc3)c3ccccc23)c1 [Example 1, 1-(3,5-Dimethylanilino)-4-[(pyridin-4-yl)-methyl]-isoquinoline] |
| 346 | Clc1ccc(Nc2ncc(Cc3ccncc3)c3ccccc23)cc1 [Example 2] |
| > 1000 | FC(F)(F)c1cc(Br)cc(Nc2ncc(Cc3ccncc3)c3ccccc23)c1 [Example 3] |
| > 1000 | FC(F)(F)c1cc(Nc2ncc(Cc3ccncc3)c3ccccc23)ccc1Cl [Example 4] |
| 344 | Cc1cccc(Nc2ncc(Cc3ccncc3)c3ccccc23)c1 [Example 5] |
